For experiment [1], the system named is Escherichia coli. Put plainly: Antibacterial activity against Escherichia coli ATCC 0111 assessed as reduction in bacterial growth incubated for 24 hrs by two fold serial dilution method. It counts as functional, organism-based.
Experiment [2] deals with Staphylococcus aureus. The experiment can be described thus: Antibacterial activity against Staphylococcus aureus 209P assessed as reduction in bacterial growth incubated for 24 hrs by two fold serial dilution method. Format: functional.
In experiment [3] the test system is HeLa. The experiment can be described thus: Cytotoxicity against human HeLa cells assessed as reduction in cell viability incubated for 24 hrs by MTT assay. It counts as functional, cell-based.

Converted amounts (≈) assume the structure as drawn. The source made the active and inactive calls. The rule behind the calls is not given here.

With `Cc1c(C)c(C(=O)O)c(O)c(C)c1O`, the result in experiment [1], in experiment [2] and in experiment [3] was inactive.
As for `CC(=O)[C@@H](C)c1cc(O)c(Cc2c3cc(O)cc(O)c3c(O)c3c(=O)cc(C)oc23)c(O)c1C=O`, the outcome in experiment [1] was inactive. Also, in experiment [2], the MIC is 32 µg/mL (≈ 66.9 µM). The IC50 in experiment [3] was 12.4 µM.
In the case of `CC(=O)[C@@H](C)c1cc(O)c(Cc2c(O)cc(O)c(Cc3c(O)cc([C@H](C)C(C)=O)c(C=O)c3O)c2C)c(O)c1C=O`, the result in experiment [1], in experiment [2] and in experiment [3] was inactive.
Turning to `Cc1cc(O)c(C)c(O)c1C`, the result in experiment [1], in experiment [2] and in experiment [3] was inactive.
As to `CC(=O)[C@@H](C)c1cc(O)c(C)c(O)c1C=O`, the result in experiment [1], in experiment [2] and in experiment [3] was inactive.
In the case of `Cc1cc(=O)c2c(O)c3c(O)cc(O)cc3cc2o1`, the outcome in experiment [1], in experiment [2] and in experiment [3] was inactive.
Take `CC(=O)[C@@H](C)c1cc(O)c(Cc2c(C)cc(O)cc2O)c(O)c1C=O`: the result in experiment [1], in experiment [2] and in experiment [3] was inactive.
`CC(=O)[C@@H](C)c1cc(O)c(CO)c(O)c1C=O`: the result in experiment [1], in experiment [2] and in experiment [3] was inactive.
For the compound `CC(=O)[C@@H](C)c1cc(O)c(Cc2c(C)c(C)c(O)c(C)c2O)c(O)c1C=O`, the result in experiment [1], in experiment [2] and in experiment [3] was inactive.
For `CC(=O)[C@@H](C)c1cc(O)c(Cc2c(O)cc(O)c3c(O)c4c(=O)cc(C)oc4cc23)c(O)c1C=O`, the outcome in experiment [1], in experiment [2] and in experiment [3] was inactive.
